Consider 24 molecules from US20060211698A1, “Bicyclic heteroaryl derivatives for treating viruses” (Genelabs, Inc., priority 2005, published 2006).

For orientation: inhibition means the share of the control response that was lost under treatment.

This test addresses T1, HCV-NS5b (Hepatitis C virus genotype 1b, UniProt Q9WMX2).
T1 construct: The cloned fragment was missing the C terminus 21 amino acid residues; (His)6 (C); made in house; host or cells: XL-1 cells (E. coli)
The experiment in a line: HCV-NS5b Enzyme Assay. The following applies: 1 μM test compound; incorporation of [3H]-UTP, 37° C., 2 hours. Format: biochemical. From the text:
The coding sequence of NS5b protein was cloned by PCR from pFKI389luc/NS3-3′/ET as described by Lohmann, V., et al. (1999) Science 285, 110-113 using the following primers: • […] (SEQ. ID. NO. 1) • […] (SEQ. ID. NO. 2)
The cloned fragment was missing the C terminus 21 amino acid residues. The cloned fragment is inserted into an IPTG-inducible expression plasmid that provides an epitope tag (His)6 at the carboxy terminus of the protein.
The recombinant enzyme was expressed in XL-1 cells and after induction of expression, the protein was purified using affinity chromatography on a nickel-NTA column. Storage condition is 10 mM Tris-HCl pH 7.5, 50 mM NaCl, 0.1 mM EDTA, 1 mM DTT, 20% glycerol at −20° C.
The polymerase activity was assayed by measuring incorporation of radiolabeled UTP into a RNA product using a biotinylated, heteropolymeric template, which includes a portion of the HCV genome. Typically, the assay mixture […] contains 10 mM Tris-HCl (pH 7.5), 5 mM MgCl2, 0.2 mM EDTA, 10 mM KCl, 1 unit/μL RNAsin. 1 mM DTT, 10 μM each of NTP, including [^3H]-UTP, and 10 ng/μL biotinylated heteropolymeric template. 20× test compound in 2 μl's was then added as a 100% DMSO solution to achieve a final DMSO concentration of 5%. For IC50 determination a 10-point dose response was used. The compounds were serial diluted 2-fold […]. Typically for IC50's, compounds were tested starting at 50 uM or 2 μm depending on the potency. Reactions were started with addition of 10×NS5B in 4 μl's and allowed to incubate at 37° C. for 2 hours. Reactions were quenched with 8 μL of 100 mM EDTA and reaction mixtures (30 μL) were transferred to streptavidin-coated scintillation proximity microtiter plates (FlashPlates) and incubated at 4° C. overnight. Incorporation of radioactivity was determined by scintillation counting (cpm). The % Inhibition at a particular concentration was determined using the following equation, % Inhibition=100−[100*(cpm with inhibitor−bg)/(cpm with no inhibitor−bg)] where bg was the background with no enzyme.
`O=C(O)c1ccc2c(C3CCCCC3)c(-c3ccc4nc(-c5cccc(F)c5)ccc4c3)n(CC(=O)N3CCOCC3)c2c1` [Compound 261, 3-Cyclohexyl-2-[2-(3-fluoro-phenyl)-quinolin-6-yl]-1-(2-morpholin-4-yl-2-oxo-ethyl)-1H-indole-6-carboxylic acid] yielded an inhibition at 1 µM of 97.1%. As to `O=C(O)c1ccc2c(C3CCCCC3)c(-c3ccc4nc(-c5c(F)cccc5F)ccc4c3)n(CC(=O)N3CCOCC3)c2c1` [Compound 259, 3-Cyclohexyl-2-[2-(2,6-difluoro-phenyl)-quinolin-6-yl]-1-(2-morpholin-4-yl-2-oxo-ethyl)-1H-indole-6-carboxylic acid], the inhibition at 1 µM came to 95.8%.

`COc1ccc(-c2ccc3cc(-c4c(C5CCCCC5)c5ccc(C(=O)O)cc5n4CC(=O)N4CCOCC4)ccc3n2)cc1OC` [Compound 253, 3-Cyclohexyl-2-[2-(3,4-dimethoxy-phenyl)-quinolin-6-yl]-1-(2-morpholin-4-yl-2-oxo-ethyl)-1H-indole-6-carboxylic acid] registered an inhibition at 1 µM of 97.5%. As to `Cc1nc(C)c(-c2ccc3cc(-c4c(C5CCCCC5)c5ccc(C(=O)O)cc5n4CC(=O)N4CCOCC4)ccc3n2)s1` [Compound 210, 1-[N-morpholinocarbonylmethyl]-2-[2-(2,4-dimethylthiazol-5-yl)-quinolin-6-yl]-3-cyclohexyl-1H-indole-6-carboxylic acid], testing at 1 µM gave an inhibition of 97.3%. The same measure, in the same setting: then `O=C(O)c1ccc2c(C3CCCCC3)c(-c3ccc(-c4cccnc4F)cc3)n(CC(=O)N3CCOCC3)c2c1` [Compound 303, 3-Cyclohexyl-2-[4-(2-fluoro-pyridin-3-yl)-phenyl]-1-(2-morpholin-4-yl-2-oxo-ethyl)-1H-indole-6-carboxylic acid], with 98%. The same measure, in the same setting: next, `O=C(O)c1ccc2c(C3CCCCC3)c(-c3ccc4ncc(-c5ccccc5)cc4c3)n(CC(=O)N3CCOCC3)c2c1` [Compound 327, 3-Cyclohexyl-1-(2-morpholin-4-yl-2-oxo-ethyl)-2-(3-phenyl-quinolin-6-yl)-1H-indole-6-carboxylic acid]: 96.3%; `Cc1nc(C)c(-c2ccc3cc(-c4c(C5CCCCC5)c5ccc(C(=O)O)cc5n4CC(=O)O)ccc3n2)s1` [Compound 211, 1-[carboxymethyl]-2-[2-(2,4-dimethylthiazol-5-yl)-quinolin-6-yl]-3-cyclohexyl-1H-indole-6-carboxylic acid]: 91%. Same read-out and setting: then `Cc1nc(C)c(-c2ccc3cc(-c4c(C5CCCCC5)c5ccc(C(=O)O)cc5n4CC(=O)Nc4nn[nH]n4)ccc3n2)s1` [Compound 239, 3-Cyclohexyl-2-[2-(2,4-dimethyl-thiazol-5-yl)-quinolin-6-yl]-1-[(2H-tetrazol-5-ylcarbamoyl)-methyl]-1H-indole-6-carboxylic acid], with 96.9%; and `Cc1nc(C)c(-c2ccc3cc(-c4c(C5CCCCC5)c5ccc(C(=O)O)cc5n4CC(=O)NCCO)ccc3n2)s1` [Compound 215, 1-[(2-hydroxyethylcarbamoyl)-methyl]-2-[2-(2,4-dimethyl-thiazol-5-yl)-quinolin-6-yl]-3-cyclohexyl-1H-indole-6-carboxylic acid], with 94.3%.

`Nc1cccc(-c2ccc(-c3c(C4CCCCC4)c4ccc(C(=O)O)cc4n3CC(=O)N3CCOCC3)cc2)c1` [Compound 315, 2-(3′-Amino-biphenyl-4-yl)-3-cyclohexyl-1-(2-morpholin-4-yl-2-oxo-ethyl)-1H-indole-6-carboxylic acid] showed an inhibition at 1 µM of 95.8%. Same read-out and setting: next, `O=C(O)c1ccc2c(C3CCCCC3)c(-c3ccc(-c4ccc(Cl)s4)cc3)n(CC(=O)N3CCOCC3)c2c1` [Compound 318, 2-[4-(5-Chloro-thiophen-2-yl)-phenyl]-3-cyclohexyl-1-(2-morpholin-4-yl-2-oxo-ethyl)-1H-indole-6-carboxylic acid]: 98.1%. The same measure, in the same setting: next, `Cc1ccc(-c2ccc(-c3c(C4CCCCC4)c4ccc(C(=O)O)cc4n3CC(=O)N3CCOCC3)cc2)cc1` [Compound 300, 3-Cyclohexyl-2-(4′-methyl-biphenyl-4-yl)-1-(2-morpholin-4-yl-2-oxo-ethyl)-1H-indole-6-carboxylic acid]: 98.2%; `Cc1nc(C)c(-c2ccc3cc(-c4c(C5CCCCC5)c5ccc(C(=O)O)cc5n4CC(=O)N4CCOCC4)cc(Br)c3n2)s1` [Compound 282, 2-[8-Bromo-2-(2,4-dimethyl-thiazol-5-yl)-quinolin-6-yl]-3-cyclohexyl-1-(2-morpholin-4-yl-2-oxo-ethyl)-1H-indole-6-carboxylic acid]: 87.8%. For the molecule `Cc1cc(-c2ccc3cc(-c4c(C5CCCCC5)c5ccc(C(=O)O)cc5n4CC(=O)N4CCOCC4)ccc3n2)c(C)o1` [Compound 230, 3-Cyclohexyl-2-[2-(2,5-dimethyl-furan-3-yl)-quinolin-6-yl]-1-(2-morpholin-4-yl-2-oxo-ethyl)-1H-indole-6-carboxylic acid], the inhibition at 1 µM is 92.2%.

For `Cc1sc(-c2ccc3cc(-c4c(C5CCCCC5)c5ccc(C(=O)O)cc5n4CC(=O)N4CCOCC4)ccc3n2)c(C)[n+]1[O-]` [Compound 281, 3-Cyclohexyl-2-[2-(2,4-dimethyl-3-oxy-thiazol-5-yl)-quinolin-6-yl]-1-(2-morpholin-4-yl-2-oxo-ethyl)-1H-indole-6-carboxylic acid], at 1 µM the inhibition was 77.6%. Same read-out and setting: next, `COc1ccc(-c2ccc(-c3c(C4CCCCC4)c4ccc(C(=O)O)cc4n3CC(=O)N3CCOCC3)cc2)cc1` [Compound 301, 3-Cyclohexyl-2-(4′-methoxy-biphenyl-4-yl)-1-(2-morpholin-4-yl-2-oxo-ethyl)-1H-indole-6-carboxylic acid]: 97%.

`O=C(O)c1ccc2c(C3CCCCC3)c(-c3ccc(-c4ccccc4)cc3)n(CC(=O)N3CCOCC3)c2c1` [Compound 332, 2-Biphenyl-4-yl-3-cyclohexyl-1-(2-morpholin-4-yl-2-oxo-ethyl)-1H-indole-6-carboxylic acid] had an inhibition at 1 µM of 100%. Take `O=C(O)c1ccc2c(C3CCCCC3)c(-c3ccc4nc(-c5cccnc5)ccc4c3)n(CC(=O)N3CCOCC3)c2c1` [Compound 226, 1-[N-morpholinocarbonylmethyl]-2-[2-pyrid-3-ylquinolin-6-yl]-3-cyclohexyl-1H-indole-6-carboxylic acid]: the “% inhibition @ 1 μM” value stood at 94.5%. Regarding `Cc1cccc(-c2ccc3cc(-c4c(C5CCCCC5)c5ccc(C(=O)O)cc5n4CC(=O)N4CCOCC4)ccc3n2)c1` [Compound 231, 3-Cyclohexyl-1-(2-morpholin-4-yl-2-oxo-ethyl)-2-(2-m-tolyl-quinolin-6-yl)-1H-indole-6-carboxylic acid], the inhibition at 1 µM amounted to 98.7%. Same read-out and setting: then `Cc1nc(C)c(-c2ccc3cc(-c4c(C5CCCCC5)c5ccc(C(=O)O)cc5n4CCN4CCOCC4)ccc3n2)s1` [Compound 290, 3-Cyclohexyl-2-[2-(2,4-dimethyl-thiazol-5-yl)-quinolin-6-yl]-1-(2-morpholin-4-yl-ethyl)-1H-indole-6-carboxylic acid], with 79.1%; and `Cc1ccccc1-c1ccc(-c2c(C3CCCCC3)c3ccc(C(=O)O)cc3n2CC(=O)N2CCOCC2)cc1` [Compound 313, 3-Cyclohexyl-2-(2′-methyl-biphenyl-4-yl)-1-(2-morpholin-4-yl-2-oxo-ethyl)-1H-indole-6-carboxylic acid], with 99.6%. Molecule `N#Cc1ccc(-c2ccc(-c3c(C4CCCCC4)c4ccc(C(=O)O)cc4n3CC(=O)N3CCOCC3)cc2)cc1` [Compound 307, 2-(4′-Cyano-biphenyl-4-yl)-3-cyclohexyl-1-(2-morpholin-4-yl-2-oxo-ethyl)-1H-indole-6-carboxylic acid] yielded an inhibition at 1 µM of 97.4%. `O=C(O)c1ccc2c(C3CCCCC3)c(-c3ccc4nc(-c5ccccc5C(F)(F)F)ccc4c3)n(CC(=O)N3CCOCC3)c2c1` [Compound 267, 3-Cyclohexyl-1-(2-morpholin-4-yl-2-oxo-ethyl)-2-[2-(2-trifluoromethyl-phenyl)-quinolin-6-yl]-1H-indole-6-carboxylic acid]: at 1 µM the inhibition was 94.6%. Still for that read-out and setting: next, `O=C(O)c1ccc2c(C3CCCCC3)c(-c3ccc4nc(-c5ccc(C(F)(F)F)cc5)ccc4c3)n(CC(=O)N3CCOCC3)c2c1` [Compound 263, 3-Cyclohexyl-1-(2-morpholin-4-yl-2-oxo-ethyl)-2-[2-(4-trifluoromethyl-phenyl)-quinolin-6-yl]-1H-indole-6-carboxylic acid]: 94.4%.
